From BindingDB's records for doi:10.1021/acs.jmedchem.5b01840 (Norgine, 2016)

Assay: Antagonist activity at CCR9 receptor in human MOLT4 cells assessed as inhibition of CCl25-mediated cell migration preincubated for 30 mins followed CCL25 addition incubated for 2 hrs by ChemoTx plate system

`CC(C)(C)c1ccc(S(=O)(=O)Nc2ccc(Cl)c3c2C(=O)N(Cc2cccnc2)C3=O)cc1` [US9969687, Compound 64] and `CC(C)(C)c1ccc(S(=O)(=O)Nc2ccc(Cl)c3c2C(=O)N(Cc2ccncc2)C3=O)cc1` [US9969687, Compound 201] cannot be ordered by Ki: 357 nM for the first, greater than 100 nM for the second.

`CC(C)(C)c1ccc(S(=O)(=O)Nc2ccc(Cl)c3c2C(=O)N(Cc2ccc[n+]([O-])c2)C3=O)cc1` [US9969687, Compound 65] and `CC(C)(C)c1ccc(S(=O)(=O)Nc2ccc(Cl)c3c2C(=O)N(Cc2cccc[n+]2[O-])C3=O)cc1` [US9969687, Compound 199] are within 1.5-fold of each other in Ki: 38 nM for the first, 40 nM for the second.

Compared with `COc1ccncc1N1C(=O)c2c(Cl)ccc(NS(=O)(=O)c3ccc(C(C)(C)C)cc3)c2C1=O` [US9969687, Compound 119], `COc1ncccc1N1C(=O)c2c(Cl)ccc(NS(=O)(=O)c3ccc(C(C)(C)C)cc3)c2C1=O` [US9969687, Compound 183] is 11-fold higher in Ki: 3 nM for the first, 32 nM for the second.

First: Cc1ncccc1N1C(=O)c2c(Cl)ccc(NS(=O)(=O)c3ccc(C(C)(C)C)cc3)c2C1=O [US9969687, Compound 175]
Second: CC(C)(C)c1ccc(S(=O)(=O)Nc2ccc(Cl)c3c2C(=O)N(c2cccnc2F)C3=O)cc1 [US9969687, Compound 218]
The Ki of the first is 6.5-fold lower: 14 nM for the first, 91 nM for the second.

Going from `Cc1c(N2C(=O)c3c(Cl)ccc(NS(=O)(=O)c4ccc(C(C)(C)C)cc4)c3C2=O)ccc[n+]1[O-]` [US9969687, Compound 176] to `COc1c(N2C(=O)c3c(Cl)ccc(NS(=O)(=O)c4ccc(C(C)(C)C)cc4)c3C2=O)ccc[n+]1[O-]` [US9969687, Compound 194], the Ki rises from 24 nM to 113 nM (4.7-fold).

Going from `CC(C)(C)c1ccc(S(=O)(=O)Nc2ccc(Cl)c3c2C(=O)N(c2ccccn2)C3=O)cc1` [US9969687, Compound 222] to `Cc1cccc(N2C(=O)c3c(Cl)ccc(NS(=O)(=O)c4ccc(C(C)(C)C)cc4)c3C2=O)n1` [US9969687, Compound 228], the Ki rises from 9 nM to 19 nM (2.1-fold). The first binds more tightly here.

Compound `Cc1ccc(N2C(=O)c3c(Cl)ccc(NS(=O)(=O)c4ccc(C(C)(C)C)cc4)c3C2=O)c(C)n1` [US9969687, Compound 224] has a Ki greater than 300 nM.
